Test results reported in US20260092061A1, “COMPOUNDS FOR TARGETED PROTEIN DEGRADATION” (Amphista Therapeutics Limited, priority 2022, published 2026).

Target: T1, BRD9 (Homo sapiens, UniProt Q9H8M2)
T1 sequence (Q9H8M2 1-597): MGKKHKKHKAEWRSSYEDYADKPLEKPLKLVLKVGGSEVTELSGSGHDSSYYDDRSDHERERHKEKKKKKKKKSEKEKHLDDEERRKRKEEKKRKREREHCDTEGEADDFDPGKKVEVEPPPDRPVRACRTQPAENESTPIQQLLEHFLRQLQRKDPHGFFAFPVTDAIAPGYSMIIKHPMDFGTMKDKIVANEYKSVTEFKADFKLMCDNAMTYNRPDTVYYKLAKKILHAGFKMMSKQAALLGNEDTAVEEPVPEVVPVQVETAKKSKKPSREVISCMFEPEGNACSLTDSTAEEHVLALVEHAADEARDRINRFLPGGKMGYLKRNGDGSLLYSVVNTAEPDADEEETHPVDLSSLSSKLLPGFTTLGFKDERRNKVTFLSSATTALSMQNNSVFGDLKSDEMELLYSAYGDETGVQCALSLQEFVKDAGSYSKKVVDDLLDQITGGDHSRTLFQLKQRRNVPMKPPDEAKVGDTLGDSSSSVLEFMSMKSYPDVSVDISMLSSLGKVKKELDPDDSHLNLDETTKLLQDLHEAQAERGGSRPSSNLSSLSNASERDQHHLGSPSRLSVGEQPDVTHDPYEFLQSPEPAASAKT
Experiment: Degradation of BRD9 (IF), immunofluorescence in MV4-11 cells, 24 hours (Assay Protocol 2)
Assay type: cell-based
Parameters: A suspension of MV4-11 cells (ATCC CRL-9591) was prepared; host or cells: MV4-11
Conditions: BRD9 degradation; for DC50: Assay protocol 2, read-out: DC50; for Dmax: MV4-11, Assay protocol 2, read-out: Dmax
Description: Assay Protocol 2—Degradation of BRD9 (IF)
A suspension of MV4-11 cells (ATCC CRL-9591) was prepared in phenol red-free assay media (IMDM Thermo Scientific 21056023+10% FBS ATCC 302025) and cells were seeded at 20,000 cells per well (45 μL) in sterile black poly-d-lysine coated 384 well plates (Greiner 781948). Compounds were prepared at 1000× final concentration in DMSO, diluted 1:100 in assay media, and 5 μL compound was added to each well of the cell plate. Cells were incubated for 24 hours at 37° C. with 5% CO2. All the following incubations for immunofluorescence staining were at room temperature. 15 μL of 16% PFA was added to each well (3.7% final concentration) and the cells were fixed for 15 min then washed twice with DPBS. Cells were permeabilised with 0.1% Triton X-100 for 10 min, Triton X-100 was removed, then blocked with 1% BSA in DPBS for 1 hour. Cells were stained with 25 μL anti-BRD9 E4Q3F antibody (CST 48306) diluted 1:25600 in 1% BSA in DPBS for 2-3 hours. Wels were washed twice with DPBS then incubated with 25 μL of 1% BSA containing a 1:1000 dilution of Anti-rabbit Alexa Fluor™ 647 secondary antibody (Thero Scientific A21244) and 1 μg/mL Hoechst nuclear counter stain (Abcam ab228551) for 1 hour. Wells were washed twice with DPBS prior to imaging on a Perkin Elmer Operetta CLS with 10× air lens. Images were processed using Harmony High-Content Imaging and Analysis Software (Perkin Elmer) and the mean contrast ratio of Alexa Fluor™ 647 in central nuclei was used to quantify BRD9 protein levels. Data was further analysed using Dotmatics software and % BRD9 remaining was calculated by normalisation to average data from high and low control wells (cells treated with DMSO or 100 nM CFT-8634 respectively).

SMILES | DC50 [nM] | Dmax [%]
COc1cnc(F)c(/C=C(\C#N)C(=O)N2CCc3c(CN4CCN(Cc5c(OC)cc(-c6cn(C)c(=O)c(C)c6C)cc5OC)CC4)cccc3C2C)c1 (mixture of isomers) [Compound B75, (E/Z)-2-(5-((4-(2,6-dimethoxy-4-(1,4,5-trimethyl-6-oxo-1,6-dihydropyridin-3-yl)benzyl)piperazin-1-yl)methyl)-1-methyl-1,2,3,4-tetrahydroisoquinoline-2-carbonyl)-3-(2-fluoro-5-methoxypyridin-3-yl)acrylonitrile] | 1.25 to 10 | 40 to 70
COc1cc(-c2cn(C)c(=O)c(C)c2C)cc(OC)c1CN1CCN(Cc2cccc3c2CCN(C(=O)/C(C#N)=C/C2(C)CCC2)C3C)CC1 (mixture of isomers) [Compound B76, (E/Z)-2-(5-((4-(2,6-dimethoxy-4-(1,4,5-trimethyl-6-oxo-1,6-dihydropyridin-3-yl)benzyl)piperazin-1-yl)methyl)-1-methyl-1,2,3,4-tetrahydroisoquinoline-2-carbonyl)-3-(1-methylcyclobutyl)acrylonitrile] | 1.25 to 10 | 40 to 70
COc1cc(-c2cn(C)c(=O)c3ccsc23)cc(OC)c1CN1CCC(Oc2cccc3c2CCN(C(=O)/C(C#N)=C/c2cccc(Br)n2)C3C)CC1 (mixture of isomers) [Compound B77] | < 1.25 | 40 to 70
COc1cc(-c2cn(C)c(=O)c(C)c2C)cc(OC)c1C(=O)N1CCC(Oc2cccc(C3CCCN3C(=O)/C(C#N)=C/C(C)(C)C)c2)CC1 (mixture of isomers) [Compound B79, (E/Z)-2-(2-(3-((1-(2,6-dimethoxy-4-(1,4,5-trimethyl-1-oxo-1,6-dihydropyridin-3-yl)benzoyl)piperidin-4-yl)oxy)phenyl)pyrrolidine-1-carbonyl)-4,4-dimethylpent-2-enenitrile] | < 1.25 | 70 to 75
COc1cc(-c2cn(C)c(=O)c(C)c2C)cc(OC)c1C(=O)N1CCN(Cc2cccc3c2CCN(C(=O)/C(C#N)=C/c2cccc(Br)n2)C3C)CC1 (mixture of isomers) [Compound B80, (E/Z)-3-(6-bromopyridin-2-yl)-2-(5-((4-(2,6-dimethoxy-4-(1,4,5-trimethyl-6-oxo-1,6-dihydropyridin-3-yl)benzoyl)piperazin-1-yl)methyl)-1-methyl-1,2,3,4-tetrahydroisoquinoline-2-carbonyl)acrylonitrile] | < 1.25 | 40 to 70
COc1cc(-c2cc(C)c(=O)n(C)c2)cc(OC)c1CN1CCN(Cc2cccc(C3CCCN3C(=O)/C(C#N)=C/C(C)(C)C)c2)CC1 (mixture of isomers) [Compound B81] | < 1.25 | > 75
COc1cc(-c2cn(C)c(=O)c(C)c2C)cc(OC)c1CN1CCN(C(=O)CCCCOc2ccc(C3CCCN3C(=O)/C(C#N)=C/c3nccs3)cc2)CC1 (mixture of isomers) [Compound B82] | 25 to 1000 | 40 to 70
COc1cc(-c2cn(C)c(=O)c(C)c2C)cc(OC)c1CN1CCN(C(=O)COCCOc2ccc3c(c2)C(C)N(C(=O)/C(C#N)=C/c2nccs2)CC3)CC1 (mixture of isomers) [Compound B83, (E/Z)-2-(7-(2-(2-(4-(2,6-dimethoxy-4-(1,4,5-trimethyl-6-oxo-1,6-dihydropyridin-3-yl)benzyl)piperazin-1-yl)-2-oxoethoxy)ethoxy)-1-methyl-1,2,3,4-tetrahydroisoquinoline-2-carbonyl)-3-(thiazol-2-yl)acrylonitrile] | 1.25 to 10 | > 75
COc1cc(-c2cn(C)c(=O)c(C)c2C)cc(OC)c1CN1CCN(C(=O)CCCCOc2ccc3c(c2)C(C)N(C(=O)/C(C#N)=C/c2nccs2)CC3)CC1 (mixture of isomers) [Compound B84, (E/Z)-2-(7-((5-(4-(2,6-dimethoxy-4-(1,4,5-trimethyl-6-oxo-1,6-dihydropyridin-3-yl)benzyl)piperazin-1-yl)-5-oxopentyl)oxy)-1-methyl-1,2,3,4-tetrahydroisoquinoline-2-carbonyl)-3-(thiazol-2-yl)acrylonitrile] | 1.25 to 10 | > 75
